This note sets out measurements from patent publication US8933230B2, “Phosphorus-containing group-substituted quinoline, its preparation process, medical composition containing the compounds and application” (priority 2011, dated 2015).

In test [1] the target is T1, GRK7 (Homo sapiens, UniProt Q8WTQ7).
T1 construct: purchased DiscoveRx Corporation (KinomeScan)
The test is described as follows: KinomeScan kinase panel. It is filed as binding. Put shortly: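 The compound was profiled across a 442-kinase KinomeScan binding panel at a fixed concentration of 1000 nM; values reflect inhibitory effect at that one dose.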

The target of test [2] is T2, c-KIT (Homo sapiens, UniProt P10721).
T2 construct: cell line M07e having endogenous high expression wild type c-KIT; endogenous in cells; host or cells: M07e
The test is described as follows: c-KIT kinase phosphorylation in M07e cells (sandwich ELISA). To be noted: SCF 100 ng/mL 3 min, mean value of two testing results, read-out: IC50 values in the cell, c-KIT. Format: cell-based. Here is the method:
(§1) Inhibitory activity on the kinases in tumor cells: In this example, the compound prepared in Example 10, N1-[4-[[7-[[1-(diethoxyphosphorylmethyl)-4-piperidinyl]methoxyl]-6-methoxyl-4-quinolyl]oxyl]-3-fluorophenyl]-N1′-(4-fluorophenyl)cyclopropane-1,1-dicarboxamide is tested in tumor cells by ProQinase GmbH corporation (Breisacher Str. 117, D-79106 Freiburg, Germany. www.proqinase.com) for the inhibitory activity on the following kinases: c-KIT, c-MET, VEGFR2 and PDGFR-β. The test includes the following steps:
(§2) Firstly, the compound according to present invention is dissolved in dimethyl sulfoxide (DMSO) to prepare a 10 mM stock solution, which is diluted serially according to the concentration range shown in Table 6:
c-KIT kinase: in the test experiment of KIT kinase phosphorylation in the cells, human acute megakaryocytic leukemia cell line M07e having endogenous high expression wild type c-KIT is used. When these cells are stimulated with human stem cell factor (SCF), the tyrosine of KIT receptor kinases is self-phosphorylated. M07e cells are inoculated in RPMI containing 20% fetal calf serum (FCS) and 10 ng/ml GM-CSF in a multi-well cell culture dish. The compound of the invention is added to the cells after overnight starvation of serum and growth factor, then the cells are cultured in a medium without serum. […]
For orientation: ELISA stands for enzyme-linked immunosorbent assay.

The target of test [3] is T3, c-MET (Homo sapiens, UniProt P08581).
T3 construct: cell line MKN45 having endogenous high expression wild type c-MET; endogenous in cells; host or cells: MKN45
The test is described as follows: c-MET kinase phosphorylation in MKN45 cells (sandwich ELISA). It is filed as cell-based. To be noted: without stimulation, mean value of two testing results, read-out: IC50 values in the cell, c-MET. As for the experimental part: as §1, §2
c-MET kinase: in the test experiment of c-MET kinase phosphorylation in the cells, human gastric cancer cell line MKN45 having endogenous high expression wild type c-MET (wild-type c-MET) is used. Such high expression of c-MET causes the tyrosine of c-MET receptor kinases constantly self-phosphorylated without ligands. MKN45 cells are inoculated in DMEM culture solution containing 10% FCS in a multi-well cell culture dish. The compound of the invention is added to the cells after serum overnight starvation, then the cells are cultured in a medium without serum. […]

For test [4], the target named is VEGFR2 (Homo sapiens, UniProt P35968). The test is described as follows: KinomeScan kinase panel. It is filed as binding. Set-up: purchased DiscoveRx Corporation (KinomeScan service). As for the experimental part: In this example, the compound prepared in Example 10, N1-[4-[[7-[[1-(diethoxyphosphorylmethyl)-4-piperidinyl]methoxyl]-6-methoxyl-4-quinolyl]oxyl]-3-fluorophenyl]-N1′-(4-fluorophenyl)cyclopropane-1,1-dicarboxamide is tested for the inhibitory effect in the 442-kinase panel of KinomeScan™ (www.kinomescan.com) from DiscoveRx Corporation (4215 Sorrento Valley Blvd, San Diego, Calif. 92121) at 1000 nM of the compound concentration, the results are shown in the following Table 5:
For the detailed information of the screening technique, see Fabian, M. A. et al, Nat., Biotechnol. 2005, 23, 329 and Karaman, M. W. et al, Nat., Biotechnol. 2008, 26, 127. It can be seen from the following representative results that, the compound according to the present invention has significant inhibitory effect on kinases including c-Met, KDR or VEGFR2, RET, PDGFR-β, c-KIT, Flt3, MEK5, DDR1, LOK, CSF1R, EPHA7, EPHA8, EPHB6, MKNK2, BLK, HIPK4, HCK, Flt4 and the mutants thereof

pIC50: −log10 of the molar value.

T3 sequence (P08581 25-1390): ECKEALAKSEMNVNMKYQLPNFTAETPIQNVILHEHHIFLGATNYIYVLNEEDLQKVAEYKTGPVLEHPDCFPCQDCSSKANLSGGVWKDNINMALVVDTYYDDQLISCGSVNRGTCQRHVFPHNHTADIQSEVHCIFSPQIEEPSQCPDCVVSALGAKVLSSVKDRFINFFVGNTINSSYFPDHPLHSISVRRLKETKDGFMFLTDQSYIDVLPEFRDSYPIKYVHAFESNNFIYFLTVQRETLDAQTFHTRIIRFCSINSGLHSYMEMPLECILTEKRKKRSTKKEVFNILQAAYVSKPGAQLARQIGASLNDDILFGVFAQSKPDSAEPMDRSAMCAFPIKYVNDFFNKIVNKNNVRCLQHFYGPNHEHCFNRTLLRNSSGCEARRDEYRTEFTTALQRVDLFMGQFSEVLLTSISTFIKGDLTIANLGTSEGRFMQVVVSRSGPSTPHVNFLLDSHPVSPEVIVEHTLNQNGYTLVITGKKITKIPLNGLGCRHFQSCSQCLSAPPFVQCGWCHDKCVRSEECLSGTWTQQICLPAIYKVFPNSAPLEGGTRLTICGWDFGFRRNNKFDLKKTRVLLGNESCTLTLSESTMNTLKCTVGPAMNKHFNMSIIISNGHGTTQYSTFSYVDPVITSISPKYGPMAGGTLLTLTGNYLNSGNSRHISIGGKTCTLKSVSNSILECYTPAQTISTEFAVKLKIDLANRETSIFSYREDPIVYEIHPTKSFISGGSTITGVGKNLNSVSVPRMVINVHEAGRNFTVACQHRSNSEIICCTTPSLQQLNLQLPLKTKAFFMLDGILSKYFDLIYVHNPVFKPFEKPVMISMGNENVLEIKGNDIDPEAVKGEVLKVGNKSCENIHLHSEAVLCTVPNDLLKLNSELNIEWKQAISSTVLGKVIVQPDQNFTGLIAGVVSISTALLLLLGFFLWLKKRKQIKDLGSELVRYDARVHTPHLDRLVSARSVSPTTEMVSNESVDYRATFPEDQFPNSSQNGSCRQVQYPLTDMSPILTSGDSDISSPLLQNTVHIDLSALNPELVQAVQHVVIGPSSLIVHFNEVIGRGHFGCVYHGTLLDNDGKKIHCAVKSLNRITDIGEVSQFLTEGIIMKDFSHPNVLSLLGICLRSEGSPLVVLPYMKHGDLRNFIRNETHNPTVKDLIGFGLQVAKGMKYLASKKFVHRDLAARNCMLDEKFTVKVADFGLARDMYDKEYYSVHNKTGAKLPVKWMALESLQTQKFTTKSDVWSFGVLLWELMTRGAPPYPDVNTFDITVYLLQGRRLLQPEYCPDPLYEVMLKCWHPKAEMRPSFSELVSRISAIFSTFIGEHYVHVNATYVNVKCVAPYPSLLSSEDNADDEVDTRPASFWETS
Sequence of VEGFR2 (P35968 20-1356): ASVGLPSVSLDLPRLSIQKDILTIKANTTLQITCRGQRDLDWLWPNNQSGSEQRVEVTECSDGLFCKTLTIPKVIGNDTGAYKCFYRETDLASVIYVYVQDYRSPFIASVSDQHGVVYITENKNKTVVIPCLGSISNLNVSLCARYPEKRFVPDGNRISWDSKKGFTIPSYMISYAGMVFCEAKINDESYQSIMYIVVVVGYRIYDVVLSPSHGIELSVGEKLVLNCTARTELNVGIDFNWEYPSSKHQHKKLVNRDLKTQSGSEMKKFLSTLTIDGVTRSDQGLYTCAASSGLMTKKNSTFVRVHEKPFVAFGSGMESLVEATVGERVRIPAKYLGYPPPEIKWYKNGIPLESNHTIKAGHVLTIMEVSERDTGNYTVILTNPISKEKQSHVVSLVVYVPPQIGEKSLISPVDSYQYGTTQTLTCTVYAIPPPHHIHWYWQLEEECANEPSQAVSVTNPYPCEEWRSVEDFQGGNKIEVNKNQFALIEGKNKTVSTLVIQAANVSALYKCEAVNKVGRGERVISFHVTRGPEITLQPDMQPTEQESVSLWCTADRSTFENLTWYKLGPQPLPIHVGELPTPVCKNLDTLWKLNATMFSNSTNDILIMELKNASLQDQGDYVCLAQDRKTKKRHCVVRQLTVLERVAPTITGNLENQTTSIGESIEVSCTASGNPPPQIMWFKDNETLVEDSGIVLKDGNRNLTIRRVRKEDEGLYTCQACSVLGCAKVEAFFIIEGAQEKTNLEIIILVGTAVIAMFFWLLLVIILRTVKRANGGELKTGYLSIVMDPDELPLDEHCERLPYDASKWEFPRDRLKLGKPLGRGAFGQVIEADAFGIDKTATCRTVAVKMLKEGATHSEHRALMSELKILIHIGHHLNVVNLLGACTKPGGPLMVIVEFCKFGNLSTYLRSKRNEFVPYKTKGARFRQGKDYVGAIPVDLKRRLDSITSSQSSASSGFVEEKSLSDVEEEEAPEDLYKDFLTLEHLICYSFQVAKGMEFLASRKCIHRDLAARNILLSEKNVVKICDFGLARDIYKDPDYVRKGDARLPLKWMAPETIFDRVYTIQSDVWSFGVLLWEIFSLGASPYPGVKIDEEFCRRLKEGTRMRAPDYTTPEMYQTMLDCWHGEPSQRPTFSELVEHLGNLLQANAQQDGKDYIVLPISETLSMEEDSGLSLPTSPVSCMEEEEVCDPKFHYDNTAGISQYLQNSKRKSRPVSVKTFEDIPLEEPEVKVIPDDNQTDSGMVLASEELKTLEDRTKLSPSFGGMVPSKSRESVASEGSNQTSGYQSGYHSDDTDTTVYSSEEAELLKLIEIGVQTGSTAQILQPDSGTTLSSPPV
T1 sequence (Q8WTQ7 whole entry): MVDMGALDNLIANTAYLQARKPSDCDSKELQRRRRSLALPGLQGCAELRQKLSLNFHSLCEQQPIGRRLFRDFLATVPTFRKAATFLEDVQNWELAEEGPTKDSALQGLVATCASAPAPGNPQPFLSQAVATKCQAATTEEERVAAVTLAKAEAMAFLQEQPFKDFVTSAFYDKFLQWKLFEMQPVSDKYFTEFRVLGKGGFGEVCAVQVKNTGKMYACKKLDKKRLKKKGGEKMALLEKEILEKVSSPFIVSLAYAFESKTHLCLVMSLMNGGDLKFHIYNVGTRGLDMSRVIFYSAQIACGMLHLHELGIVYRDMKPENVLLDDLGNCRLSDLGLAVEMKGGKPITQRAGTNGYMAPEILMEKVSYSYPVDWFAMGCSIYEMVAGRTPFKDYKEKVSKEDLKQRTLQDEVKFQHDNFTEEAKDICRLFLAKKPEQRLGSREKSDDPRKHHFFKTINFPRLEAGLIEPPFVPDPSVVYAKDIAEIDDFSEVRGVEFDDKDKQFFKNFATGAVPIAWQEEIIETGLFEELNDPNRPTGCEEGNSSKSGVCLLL
T2 sequence (P10721 26-976): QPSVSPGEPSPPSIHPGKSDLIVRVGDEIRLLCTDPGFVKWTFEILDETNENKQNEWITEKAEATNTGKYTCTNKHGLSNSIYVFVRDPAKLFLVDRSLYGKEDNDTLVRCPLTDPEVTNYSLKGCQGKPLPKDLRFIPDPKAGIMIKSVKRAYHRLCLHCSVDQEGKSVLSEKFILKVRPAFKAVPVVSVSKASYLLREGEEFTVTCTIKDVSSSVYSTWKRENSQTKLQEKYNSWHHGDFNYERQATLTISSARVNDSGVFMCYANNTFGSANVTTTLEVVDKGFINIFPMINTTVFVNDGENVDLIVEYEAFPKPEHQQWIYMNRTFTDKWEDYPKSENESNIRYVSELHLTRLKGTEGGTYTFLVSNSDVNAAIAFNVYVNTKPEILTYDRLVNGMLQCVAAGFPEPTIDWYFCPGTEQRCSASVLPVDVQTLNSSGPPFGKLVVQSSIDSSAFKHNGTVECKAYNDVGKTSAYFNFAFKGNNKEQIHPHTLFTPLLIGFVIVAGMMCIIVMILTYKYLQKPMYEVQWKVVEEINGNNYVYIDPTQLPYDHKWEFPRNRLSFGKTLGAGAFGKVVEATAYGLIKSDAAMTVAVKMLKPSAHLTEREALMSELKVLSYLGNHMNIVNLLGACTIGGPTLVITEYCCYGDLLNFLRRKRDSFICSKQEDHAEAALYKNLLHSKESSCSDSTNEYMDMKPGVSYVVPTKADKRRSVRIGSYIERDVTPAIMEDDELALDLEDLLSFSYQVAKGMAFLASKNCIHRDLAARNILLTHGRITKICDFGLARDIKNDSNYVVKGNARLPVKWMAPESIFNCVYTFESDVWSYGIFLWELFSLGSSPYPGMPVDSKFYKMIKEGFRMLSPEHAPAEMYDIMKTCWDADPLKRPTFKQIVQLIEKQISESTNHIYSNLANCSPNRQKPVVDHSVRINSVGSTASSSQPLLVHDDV

Consider `CCOP(=O)(CN1CCC(COc2cc3nccc(Oc4ccc(NC(=O)C5(C(=O)Nc6ccc(F)cc6)CC5)cc4F)c3cc2OC)CC1)OCC` [Example 10, N1-[4-[[7-[[1-(diethoxyphosphorylmethyl)-4-piperidinyl]methoxyl]-6-methoxyl-4-quinolyl]oxyl]-3-fluorophenyl]-N1′-(4-fluorophenyl)cyclopropane-1,1-dicarboxamide], for which the “% Ctrl@1000 nM” value came out at 100 % Ctrl in test [1] and 3.9 % Ctrl in test [4]. Besides, the pIC50 (in general, the IC50 on a negative log10 scale, so that one unit is a factor of ten) is 7.57 in test [2] and 7.77 in test [3].
